# Measurements taken from US20060172943A1, “Restoring vascular function” (priority 2003, published 2006).
# Ends that are not written are not given here.
# Key:
# [1] = biological target: T1, tenascin-C in the cardiac vasculature (Mus musculus, UniProt Q80YX1); assay: Immunostaining of heart sections for phage coat protein pIII and tenascin-C; format: in vivo; details: rodent heart after phage injection
# T1 construct: from tissue; host or cells: heart (cardiac vasculature) of phage-injected animals, paraffin sections
# Excerpt: For immunohistochemical analysis of phage binding, hearts were harvested after phage injection, and then prepared for paraffin embedding and sectioning using standard histochemical procedures.
# (§1) The following primary antibodies were used for immunostaining histological sections: anti-tenascin-C (Santa Cruz Biotechnology, California), anti-pIII (Mobitec, Germany), anti-β-galactosidase (Biogenesis, U.K.), anti-PDGFRα (Santa Cruz Biotechnology). For consistency, sections for all analyses were selected from the mid-papillary region of the ventricles. Primary antibodies were labeled with biotin and visualized with Texas Red- and FITC-conjugated avidin (Vector Labs, California).
# To investigate whether tenascin is an in vivo receptor for ψR3Y32, expression of tenascin-C as well as its relationship to phage binding sites was analyzed in the rodent heart. […] Co-staining for tenascin-C and the nuclear marker 4,6-diamidino-2-phenylindole (DAPI) further confirmed that tenascin-C is expressed on the luminal surface of cardiac vessels, and therefore may act at sites of endothelial cell/EPC cell incorporation during vascular remodeling (FIG. 3D).
# [2] = tested on: cardiac vasculature of young (3-month-old) and old (18-month-old) murine hearts; assay: In vivo phage binding in heart after tail vein injection, quantified by phage titering; details: individual tail vein injection; 3-month-old vs 18-month-old mice; titers of phage eluted from hearts
# Protocol: To identify young-specific bone marrow-homing phage, a phage library encoding a cyclically constrained seven amino acid variable region (New England Biolabs, Massachusetts) was injected into young (3 month) and old (18-month) adult mice, using methods described in Cai, D., et al., Age-associated impairment in TNF-alpha cardioprotection from myocardial infarction. Am J Physiol Heart Circ Physiol, 2003. 285(2): p. H463-69. Phage clones were selected for sequencing from phage pools eluted from young rather than old bone marrow. To confirm that these clones preferentially bound to young bone marrow, the clones were injected individually into young and old mice and young bone marrow-specific clones were re-selected from the young mouse's bone marrow. Young bone marrow-homing phage were then analyzed for cardiac binding to identify phage epitopes that preferentially bound to young cardiac vasculature as well as young bone marrow. The number of bound phage recovered per mg of tissue was quantified by serial dilution titration. The age-associated differential cardiac binding capacity of a candidate phage clone, ψR3Y32 was confirmed using methods described in Cai et al. (2004).
# Individual injection of ψR3Y32 confirmed 10-fold higher levels of ψR3Y32 binding in young compared to old murine hearts (FIG. 3A).
# [3] = tested on: rat cardiac microvascular endothelial cells; assay: In vitro cell adhesion and spreading analysis on coated substrates; format: cell-based; details: for cells that failed to attach to the substrate: within 10 min of plating
# Protocol: (§2) Rat cardiac microvascular endothelial cells were isolated from 3-month-old rats according to the method of Nishida et al. (1995). Cells were cultured on either collagen-coated or tenascin-C-coated (10 μg/ml) 8-well chamber slides (Nunc Nalge International, Illinois.) in minimal media (5% fetal bovine serum, 1% penicillin, 1% streptomycin in Dulbecco's modified Eagle's medium) for up to 48 hours and photographed daily. […] For migration analysis, cells were covered with 300 μl of collagen gel (Chemicon, California) after 3 h of culture on 10 μg/ml collagen or tenascin-C. The gel was allowed to polymerize for 1 hour at 37° C. and 200 μl of minimal media containing VEGF or PDGF (5 ng/ml) or no growth factor was added to the wells. Cells were incubated for up to 48 h, and analyzed for peak migration rates using an inverted microscope (Nikon, Japan): migratory distance of the 5 cells that had migrated furthest through the Z-axis of the gel was determined using the Z-plane focus knob of the microscope. Each experiment was repeated 4 times.
# The role of tenascin-C in the regulation of cardiac angiogenesis, endothelial cell phenotype and behavior was further analyzed by observing whether tenascin-C influenced cell adhesion. Cardiac endothelial cells were isolated from young hearts and cultured on either tenascin-C or collagen at a concentration of 10 μg/ml. […] Thus, it appeared that tenascin-C has a short-term anti-adhesive effect on cardiac endothelial cells. […] After 3 h of culture, 99% of cells were attached to the collagen substrate, while approximately 10% of cells on tenascin-C still fail to adhere in this time. Thus, tenascin-C can mediate endothelial cell attachment but, at least within the first few hours of endothelial cell binding to tenascin-C, this attachment is weak and cells maintain a rounded phenotype.
# The time period and substrate concentration effects upon cell attachment were further examined by plating rat microvascular endothelial cells on various concentrations (1 μg/ml, 10 μg/ml and 100 μg/ml) of collagen and tenascin-C and observing the attachment of cells to these substrates. As shown in FIGS. 6A-C, within 3 hr, cells on collagen were well attached and beginning to spread into a monolayer. In contrast, cells plated on tenascin-C for 3 hr remained rounded, especially when higher concentrations of tenascin-C were used (FIGS. 6D-F).
# [4] = tested on: rat cardiac microvascular endothelial cells; assay: Three-dimensional migration assay through collagen gel; format: cell-based; details: cells cultured 3 h on substrate 10 μg/ml, 48 hours; for increase of peak migration distance in response to PDGF compared to absence of growth factors: PDGF 5 ng/ml; for increase of peak migration distance in response to VEGF compared to absence of growth factors: VEGF 5 ng/ml
# Protocol: as §2
# A three-dimensional assay system was developed in which cardiac endothelial cells were cultured on either collagen or tenascin-C for 3 h, and then migration through a collagen gel was analyzed in response to PDGF, VEGF, or the absence of angiogenic growth factors (FIGS. 8A, B). After 48 hours, peak migration distances through the Z-axis of the gel were determined (FIG. 8C).
# [5] = tested on: tenascin-C expression in the heart; assay: Immunohistochemical analysis of heart sections after intramyocardial PDGF injection; format: in vivo, rat; details: rats, 24 h, immunohistochemistry, data not shown
# Protocol: Cardiac injections of PDGF ligand were performed as described in Xaymardan et al., Senescent impairment in synergistic cytokine pathways that provide rapid cardioprotection in the rat heart. J Exp Med, 199(6): p. 797-804 (2004). Briefly, rats were anesthetized, an intercostal thoracotomy was performed and then the rats received intramyocardial injections of PDGF-AB (100 ng/50 μl PBS) at the anterior wall of the myocardium (two 25 μl injections, 2 mm apart) through a 28 gauge needle. The chest wall was closed, the lungs inflated and the rats were extubated. Twenty-four hours later, the rats were sacrificed and the hearts were harvested for paraffin embedding and sectioning, using standard techniques.
# as §1
# [6] = tested on: tenascin-C mRNA expression in cultured rat cardiac endothelial cells; assay: PCR analysis of tenascin-C mRNA expression in cultured cardiac endothelial cells treated with PDGF; format: cell-based; details: data not shown
# Protocol: Tenascin-C expression was induced by PDGF during in vitro studies in rat aortic smooth muscle cells. […] Control cells received no PDGF. Cardiac endothelial cells from young (4-month old) and old (24-month old) rat hearts were tested. The number of treated and non-treated cultures tested was two (n=2 per group). Tenascin-C expression was higher in PDGF-treated cells and in younger (4 month old) as opposed to older ([…]) cultures of rat cardiac endothelial cells.
# [7] = 3 hours of incubation, substrate 10 μg/ml
# [8] = after 3 h of culture, substrate 10 μg/ml
# T1 sequence (Q80YX1 23-2110): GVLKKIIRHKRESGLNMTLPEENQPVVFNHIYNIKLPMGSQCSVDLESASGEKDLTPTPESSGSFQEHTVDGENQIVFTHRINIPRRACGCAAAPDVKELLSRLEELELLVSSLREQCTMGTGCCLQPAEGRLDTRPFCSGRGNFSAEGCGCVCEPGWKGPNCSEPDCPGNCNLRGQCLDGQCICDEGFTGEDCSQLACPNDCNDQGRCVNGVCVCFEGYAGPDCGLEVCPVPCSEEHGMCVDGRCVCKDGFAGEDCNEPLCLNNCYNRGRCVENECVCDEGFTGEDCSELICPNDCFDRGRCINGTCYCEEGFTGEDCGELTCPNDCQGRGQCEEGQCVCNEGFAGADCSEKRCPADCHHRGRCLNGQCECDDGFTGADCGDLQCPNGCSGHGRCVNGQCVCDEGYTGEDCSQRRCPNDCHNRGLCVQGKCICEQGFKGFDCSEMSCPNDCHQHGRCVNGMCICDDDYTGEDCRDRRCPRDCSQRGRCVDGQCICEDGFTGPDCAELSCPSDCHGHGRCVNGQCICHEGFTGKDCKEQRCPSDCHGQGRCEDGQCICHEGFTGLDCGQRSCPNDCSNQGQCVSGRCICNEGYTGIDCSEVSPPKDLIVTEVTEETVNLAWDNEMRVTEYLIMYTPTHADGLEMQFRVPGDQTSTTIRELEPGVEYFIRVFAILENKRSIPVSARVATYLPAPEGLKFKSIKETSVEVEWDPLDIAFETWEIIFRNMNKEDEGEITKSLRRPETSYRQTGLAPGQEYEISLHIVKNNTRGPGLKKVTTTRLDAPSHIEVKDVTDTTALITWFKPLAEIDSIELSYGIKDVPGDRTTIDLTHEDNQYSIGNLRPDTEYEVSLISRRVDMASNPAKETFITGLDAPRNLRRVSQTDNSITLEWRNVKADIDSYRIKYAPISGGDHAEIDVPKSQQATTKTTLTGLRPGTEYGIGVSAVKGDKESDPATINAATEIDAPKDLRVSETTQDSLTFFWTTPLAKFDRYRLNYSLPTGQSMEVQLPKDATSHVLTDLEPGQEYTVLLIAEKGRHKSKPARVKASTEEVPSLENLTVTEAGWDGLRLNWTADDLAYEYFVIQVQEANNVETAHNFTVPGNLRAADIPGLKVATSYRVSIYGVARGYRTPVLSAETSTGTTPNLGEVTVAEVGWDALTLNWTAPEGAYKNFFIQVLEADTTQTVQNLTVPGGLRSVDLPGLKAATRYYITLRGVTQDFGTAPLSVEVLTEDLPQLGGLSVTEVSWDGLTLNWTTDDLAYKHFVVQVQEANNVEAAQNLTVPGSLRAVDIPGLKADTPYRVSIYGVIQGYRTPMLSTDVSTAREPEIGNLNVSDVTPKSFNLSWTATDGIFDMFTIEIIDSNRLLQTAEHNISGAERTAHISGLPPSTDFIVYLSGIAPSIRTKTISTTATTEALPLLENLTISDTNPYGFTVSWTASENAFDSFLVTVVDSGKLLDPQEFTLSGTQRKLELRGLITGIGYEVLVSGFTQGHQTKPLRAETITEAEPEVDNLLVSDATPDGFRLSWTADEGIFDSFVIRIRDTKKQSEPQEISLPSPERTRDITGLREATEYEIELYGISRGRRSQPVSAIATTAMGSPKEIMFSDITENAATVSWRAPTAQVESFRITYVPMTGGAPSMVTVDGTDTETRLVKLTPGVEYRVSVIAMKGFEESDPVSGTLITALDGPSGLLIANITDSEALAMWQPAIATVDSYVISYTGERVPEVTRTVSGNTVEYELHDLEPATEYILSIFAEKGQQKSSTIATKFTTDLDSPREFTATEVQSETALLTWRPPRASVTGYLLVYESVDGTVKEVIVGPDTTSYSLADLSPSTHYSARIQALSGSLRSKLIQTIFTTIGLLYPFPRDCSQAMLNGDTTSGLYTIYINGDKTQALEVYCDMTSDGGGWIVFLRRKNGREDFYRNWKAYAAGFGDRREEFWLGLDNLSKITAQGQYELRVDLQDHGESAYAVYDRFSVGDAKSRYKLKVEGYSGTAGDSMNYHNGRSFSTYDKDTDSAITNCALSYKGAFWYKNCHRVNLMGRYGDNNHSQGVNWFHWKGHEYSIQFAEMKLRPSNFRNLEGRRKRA
substance,measurement,setting,value
"ψR3Y32: phage clone from in vivo biopanning displaying a cyclically constrained peptide with core motif STISHN (SEQ ID NO:1), homologous to alpha-8 integrin (also: displayed on phage, cyclically constrained; listed as Homo sapiens)",binding of phage to vessels within the heart (pIII immunostaining),[1],confirmed the binding of ψR3Y32 to vessels within the heart
same,levels of phage binding in young compared to old murine hearts,[2],10 fold
"tenascin-C: hexameric extracellular matrix glycoprotein, used as coating substrate for cardiac endothelial cells",cell attachment and morphology,[3]; [7],rounded and poorly attached
same,cell attachment and morphology,"[3]; 24 hours of culture, substrate 10 μg/ml",well attached and spread and formed a typical endothelial monolayer
same,cell attachment and morphology,"[3]; 24 hr, substrate 100 μg/ml",formed multi-layered cell clusters
same,cells that fail to adhere,[3]; [8],approximately 10%
same,cells that failed to attach to the substrate,[3]; substrate 10 μg/ml,86.9%
same,increase of peak migration distance in response to PDGF compared to absence of growth factors,[4],64.3%
same,increase of peak migration distance in response to VEGF compared to absence of growth factors,[4],91.6%
PDGF-AB: platelet derived growth factor AB heterodimer ligand,tenascin-C expression in heart sections after treatment,[5],increases tenascin-C expression
same,time of peak upregulation of tenascin-C mRNA,"[6]; RT-PCR, cardiac endothelial cells cultured with exogenous PDGF ligand",6 h
same,tenascin-C mRNA expression in cardiac endothelial cells after treatment,"[6]; real-time PCR, cultured rat cardiac endothelial cells, n=2 per group",increased
collagen [reference compound],cell attachment and morphology,[3]; [7],attached well and were beginning to spread
same,cells attached to the substrate,[3]; [8],99%
same,cells that failed to attach to the substrate,[3]; substrate 10 μg/ml,16.9%
same,increase of peak migration distance in response to PDGF compared to absence of growth factors,[4],51.4%
same,increase of peak migration distance in response to VEGF compared to absence of growth factors,[4],63.3%
